According to the supplement of paper PMC10307832:

Each cell line was assayed with CC1=C(C(=NN1)C)CC2=C(C3=C(S2)N(C(=O)N(C3=O)C)CC(C)C)C(=O)N4C[C@@H](CO4)O + COc1cc2c(Oc3ccc(NC(=O)C4(C(=O)Nc5ccc(F)cc5)CC4)cc3F)ccnc2cc1OCCCN1CCOCC1 [Foretinib] (partner 0.25 µM) (assay: relative viability (nuclei count vs DMSO), 5 days (fraction); higher = more cells survive). Details: first compound 0.007906 µM.
In short: (§1)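 Dosing by pin tool came one day after lung cancer cell lines were seeded in 1536-well plates, using either one drug or a fixed anchor-drug dose plus five library-drug doses (not always all listed) in √10 steps. After 5 days, nuclei were counted on 4× images. Relative viability is treated-well nuclei count divided by vehicle-well nuclei count, and values are medians of duplicate plates.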

Going from NCI-H727 to NCI-H1650, the relative viability rises from 1.13 to 1.26.

Compared with EBC-1, NCI-H1703 is higher in relative viability: 0.107 for the first, 0.391 for the second.

Compared with NCI-H1993, SW 1573 is higher in relative viability: 0.719 for the first, 1.05 for the second.

First: NCI-H838
Second: LCLC-103H
The relative viability of the first is higher: 1.04 for the first, 0.672 for the second.

Compared with NCI-H520, NCI-H2126 is higher in relative viability: 0.73 for the first, 0.958 for the second.

First: EMC-BAC-2
Second: NCI-H2085
The relative viability of the first is higher: 1.09 for the first, 0.803 for the second.

Compared with Calu-6, HCC-366 is higher in relative viability: 0.813 for the first, 0.932 for the second.

First: NCI-H1666
Second: NCI-H596
The relative viability of the first is lower: 0.995 for the first, 1.12 for the second.

First: LK-2
Second: NCI-H2087
The relative viability of the first is higher: 1.12 for the first, 1.05 for the second.

Going from NCI-H2342 to SK-MES-1, the relative viability rises from 1.04 to 1.06.

Going from H3255 to COR-L23, the relative viability rises from 0.968 to 1.07.

First: COR-L 105
Second: IA-LM
The relative viability of the first is lower: 0.899 for the first, 1.01 for the second.

First: LOU-NH91
Second: ChaGo-K-1
The relative viability of the first is lower: 0.877 for the first, 0.979 for the second.

Compared with A549, SW 900 is higher in relative viability: 1.02 for the first, 1.06 for the second.

Going from NCI-H2009 to NCI-H661, the relative viability falls from 1.27 to 0.97.

First: SK-LU-1
Second: NCI-H1299
The relative viability of the first is lower: 0.556 for the first, 1.11 for the second.

Going from NCI-H2228 to NCI-H2023, the relative viability falls from 1.04 to 0.809.

With NCI-H1563 the relative viability was 0.969.

Same assay, conditions: first compound 0.025 µM

First: NCI-H1623
Second: NCI-H727
The relative viability of the first is higher: 0.997 for the first, 0.882 for the second.

Going from NCI-H1650 to EBC-1, the relative viability falls from 1.52 to 0.12.

Going from NCI-H1703 to NCI-H1993, the relative viability rises from 0.386 to 0.827.

First: SW 1573
Second: NCI-H838
The relative viability of the first is lower: 0.86 for the first, 0.983 for the second.

Going from LCLC-103H to NCI-H520, the relative viability falls from 0.817 to 0.701.

Compared with NCI-H2126, EMC-BAC-2 is higher in relative viability: 1.03 for the first, 1.07 for the second.

Going from NCI-H2085 to Calu-6, the relative viability falls from 0.957 to 0.715.

Compared with HCC-366, NCI-H1666 is lower in relative viability: 0.905 for the first, 0.897 for the second.

Going from NCI-H596 to LK-2, the relative viability rises from 0.691 to 0.981.

Going from NCI-H2087 to NCI-H2342, the relative viability falls from 1.03 to 0.893.

First: SK-MES-1
Second: H3255
The relative viability of the first is higher: 1.02 for the first, 0.784 for the second.

First: COR-L23
Second: COR-L 105
The relative viability of the first is lower: 0.8 for the first, 0.974 for the second.

First: IA-LM
Second: LOU-NH91
The relative viability of the first is higher: 1.2 for the first, 0.988 for the second.

Compared with ChaGo-K-1, A549 is higher in relative viability: 0.888 for the first, 0.906 for the second.

Going from SW 900 to NCI-H2009, the relative viability rises from 0.671 to 1.17.

Compared with NCI-H661, SK-LU-1 is lower in relative viability: 0.95 for the first, 0.527 for the second.

First: NCI-H1299
Second: NCI-H2228
The relative viability of the first is higher: 1.06 for the first, 0.734 for the second.

Going from NCI-H2023 to NCI-H1563, the relative viability rises from 0.959 to 0.967.

Same assay, conditions: first compound 0.07906 µM

Compared with NCI-H1623, NCI-H727 is higher in relative viability: 0.805 for the first, 0.876 for the second.

Going from NCI-H1650 to EBC-1, the relative viability falls from 1.18 to 0.107.

First: NCI-H1703
Second: NCI-H1993
The relative viability of the first is lower: 0.329 for the first, 0.711 for the second.

First: SW 1573
Second: NCI-H838
The relative viability of the first is lower: 0.74 for the first, 0.974 for the second.

First: LCLC-103H
Second: NCI-H520
The relative viability of the first is higher: 0.84 for the first, 0.564 for the second.

First: NCI-H2126
Second: EMC-BAC-2
The relative viability of the first is higher: 1.29 for the first, 1.08 for the second.

Going from NCI-H2085 to Calu-6, the relative viability rises from 0.796 to 0.809.

Compared with HCC-366, NCI-H1666 is higher in relative viability: 0.771 for the first, 0.94 for the second.

Compared with NCI-H596, LK-2 is higher in relative viability: 0.702 for the first, 0.928 for the second.

First: NCI-H2087
Second: NCI-H2342
The relative viability of the first is lower: 0.811 for the first, 0.998 for the second.

Compared with SK-MES-1, H3255 is lower in relative viability: 0.954 for the first, 0.802 for the second.

Going from COR-L23 to COR-L 105, the relative viability rises from 0.87 to 1.03.

Going from IA-LM to LOU-NH91, the relative viability falls from 1.25 to 1.02.

Going from ChaGo-K-1 to A549, the relative viability rises from 0.914 to 1.

Going from SW 900 to NCI-H2009, the relative viability rises from 0.834 to 1.35.

First: NCI-H661
Second: SK-LU-1
The relative viability of the first is higher: 0.978 for the first, 0.492 for the second.

Compared with NCI-H1299, NCI-H2228 is lower in relative viability: 1.1 for the first, 0.83 for the second.

First: NCI-H2023
Second: NCI-H1563
The relative viability of the first is lower: 0.898 for the first, 0.933 for the second.

Same assay, conditions: first compound 0.25 µM

First: NCI-H1623
Second: NCI-H727
The relative viability of the first is lower: 0.749 for the first, 0.897 for the second.

First: NCI-H1650
Second: EBC-1
The relative viability of the first is higher: 1.05 for the first, 0.103 for the second.

First: NCI-H1703
Second: NCI-H1993
The relative viability of the first is lower: 0.362 for the first, 0.749 for the second.

Going from SW 1573 to NCI-H838, the relative viability rises from 0.964 to 0.99.

Compared with LCLC-103H, NCI-H520 is lower in relative viability: 1.02 for the first, 0.692 for the second.

Compared with NCI-H2126, EMC-BAC-2 is higher in relative viability: 0.947 for the first, 1.04 for the second.

Compared with NCI-H2085, Calu-6 is higher in relative viability: 0.827 for the first, 0.897 for the second.

First: HCC-366
Second: NCI-H1666
The relative viability of the first is lower: 0.958 for the first, 1.03 for the second.

Going from NCI-H596 to LK-2, the relative viability rises from 0.99 to 1.16.

First: NCI-H2087
Second: NCI-H2342
The relative viability of the first is higher: 1.07 for the first, 1.01 for the second.

First: SK-MES-1
Second: H3255
The relative viability of the first is higher: 0.991 for the first, 0.775 for the second.

First: COR-L23
Second: COR-L 105
The relative viability of the first is lower: 0.846 for the first, 1.06 for the second.

First: IA-LM
Second: LOU-NH91
The relative viability of the first is higher: 1.14 for the first, 0.972 for the second.

Going from ChaGo-K-1 to A549, the relative viability rises from 0.968 to 1.1.

Compared with SW 900, NCI-H2009 is higher in relative viability: 1.06 for the first, 1.15 for the second.

Compared with NCI-H661, SK-LU-1 is lower in relative viability: 0.998 for the first, 0.548 for the second.

Going from NCI-H1299 to NCI-H2228, the relative viability falls from 1.09 to 1.08.

First: NCI-H2023
Second: NCI-H1563
The relative viability of the first is higher: 1.03 for the first, 0.936 for the second.

These cell lines were tested with Cc1ccccc1C(C(=O)NC1CCCCC1)N(C(=O)Cn1ccnc1C)c1cccc(F)c1 [IDH-C35] + Cc1nc(NC(=O)N2CCC[C@H]2C(N)=O)sc1-c1ccnc(C(C)(C)C(F)(F)F)c1 [Alpelisib] (partner 2 µM) in the same assay as above. Details: first compound 0.08 µM.
In short: as §1

Going from NCI-H727 to EBC-1, the relative viability rises from 0.536 to 0.879.

Compared with NCI-H1703, NCI-H1993 is higher in relative viability: 0.379 for the first, 0.667 for the second.

Going from SW 1573 to NCI-H838, the relative viability rises from 0.745 to 1.03.

Compared with LCLC-103H, NCI-H520 is lower in relative viability: 1.05 for the first, 0.71 for the second.

Compared with NCI-H2126, EMC-BAC-2 is higher in relative viability: 0.766 for the first, 0.79 for the second.

In the case of NCI-H2085, the relative viability is reported as 0.973.
